Structures are written as SMILES.

The results in this text go back to patent publication US9296741B2, “Bromodomain inhibitors” (priority 2012, dated 2016).

The target of series [1] is human BRD4 second bromodomain (BDII_E352-M457) (Homo sapiens (Human), UniProt O60885). The experiment in a line: TR-FRET bromodomain binding assay, BRD4 second bromodomain. Background: Time-resolved FRET reads energy transfer from a long-lived donor to a nearby acceptor.
The nature of series [2]: Human liver microsome stability assay. The series is classed as in vitro ADME. The note with it: both sexes, human, microsomes, pH 7.4.
Series [3] is described as follows: Mouse liver microsome stability assay. The following applies: male, CD1, mouse, microsomes, pH 7.4. The series is classed as in vitro ADME. Background: Liver microsomes are a subcellular fraction often used to study metabolism.
For series [4], the system named is breast cancer cell line MX-1. The experiment in a line: MX-1 cell line proliferation assay. The series is classed as cell-based, human. The following applies: Homo sapiens, MX1, 72 h; MX-1 cells, 3-day proliferation, Cell Titer Glo; read-out: Cellular proliferation: EC50.
Series [5] in a line: Rat liver microsome stability assay. The series is classed as in vitro ADME. The note with it: rat liver microsomes (male Sprague-Dawley), 0.5 μM test compound, 0.25 mg/mL microsomal protein, pH 7.4, 37° C.; read-out: Stability in rat liver microsomes (t1/2 in minutes).
The target in series [6] is human BRD4 first bromodomain (BDI_K57-E168) (Homo sapiens (Human), UniProt O60885). The experiment in a line: TR-FRET bromodomain binding assay, BRD4 first bromodomain.

The term Ki denotes a dissociation constant, usually derived from enzyme kinetics or from competition with a known ligand. A lower Ki goes with a stronger hold on the target. Regarding `Cn1cc(-c2cc(S(N)(=O)=O)cnc2NC2CCCCC2)c2cc[nH]c2c1=O` [Example 96, 6-(cyclohexylamino)-5-(6-methyl-7-oxo-6,7-dihydro-1H-pyrrolo[2,3-c]pyridin-4-yl)pyridine-3-sulfonamide], the Ki in series [1] was determined as 1.1 nM; in series [6] it was 0.63 nM. Besides, the values for the half-life at 0.5 μM in series [2], in series [3] and in series [5] were 24 min, 33 min and 13 min, respectively. For the same compound, the EC50 in series [4] worked out at 16 nM.

Consider `CN(C)S(=O)(=O)Nc1ccc(Oc2ccccc2)c(-c2cn(C)c(=O)c3[nH]ccc23)c1` [Example 22, N,N-dimethyl-N′-[3-(6-methyl-7-oxo-6,7-dihydro-1H-pyrrolo[2,3-c]pyridin-4-yl)-4-phenoxyphenyl]sulfuric diamide], for which the Ki worked out at 1 nM in series [1] and 2.2 nM in series [6]. The half-life at 0.5 μM in series [2] turned out to be 32 min; in series [3], 10.7 min; in series [5], 3 min. Further, the EC50 in series [4] came out at 65.2 nM.

`Cn1cc(-c2cc(C(=O)N3CCC(NC(=O)OC(C)(C)C)C3)ccc2Oc2ccc(F)cc2F)c2cc[nH]c2c1=O` (stereo not drawn) [Example 54, tert-butyl {1-[4-(2,4-difluorophenoxy)-3-(6-methyl-7-oxo-6,7-dihydro-1H-pyrrolo[2,3-c]pyridin-4-yl)benzoyl]pyrrolidin-3-yl}carbamate]: the inhibition constant (Ki) in series [1] came out at 37.5 nM; in series [6], 95.1 nM. Also, the half-life at 0.5 μM in series [2] amounted to 3 min; in series [3] it was 2 min; in series [5] it was 30 min. Besides, the EC50 in series [4] turned out to be 266 nM.

Take `Cn1cc(-c2cc(CC#N)ccc2OCC2CC2)c2cc[nH]c2c1=O` [Example 336, [4-(cyclopropylmethoxy)-3-(6-methyl-7-oxo-6,7-dihydro-1H-pyrrolo[2,3-c]pyridin-4-yl)phenyl]acetonitrile]: the inhibition constant (Ki) in series [1] was determined as 152 nM; in series [6], 76.2 nM. Moreover, the half-life at 0.5 μM in series [2] was 44 min; in series [3], 17 min; in series [5] it was 5 min. The EC50 in series [4] stood at 115 nM.

For `COc1ccccc1Oc1ccc(S(C)(=O)=O)cc1-c1cn(C)c(=O)c2[nH]ccc12` [Example 178, 4-[2-(2-methoxyphenoxy)-5-(methylsulfonyl)phenyl]-6-methyl-1,6-dihydro-7H-pyrrolo[2,3-c]pyridin-7-one], the inhibition constant (Ki) in series [1] turned out to be 3.2 nM; in series [6], 10.5 nM. The half-life at 0.5 μM in series [2] is 27 min; in series [3], 10 min; in series [5], 7 min. For the same compound, the EC50 in series [4] stood at 36.2 nM.

In the case of `CCS(=O)(=O)Nc1ccc(Oc2ccc(F)cc2F)c(-c2cn(C)c(=O)c3[nH]c(CN4CCN(C)CC4)cc23)c1` [Example 339, N-[4-(2,4-difluorophenoxy)-3-{6-methyl-2-[(4-methylpiperazin-1-yl)methyl]-7-oxo-6,7-dihydro-1H-pyrrolo[2,3-c]pyridin-4-yl}phenyl]ethanesulfonamide], the inhibition constant (Ki) in series [1] turned out to be 31.6 nM; in series [6], 0.8 nM. The results for the half-life at 0.5 μM in series [2], in series [3] and in series [5] were 100 min, 67 min and 76 min, respectively. Also, in series [4], the EC50 was found to be 77.4 nM.

Turning to `Cn1cc(-c2cc(S(C)(=O)=O)ccc2Oc2ccc(F)cc2F)c2cc(C(=O)NCC(F)(F)F)[nH]c2c1=O` [Example 254, 4-[2-(2,4-difluorophenoxy)-5-(methylsulfonyl)phenyl]-6-methyl-7-oxo-N-(2,2,2-trifluoroethyl)-6,7-dihydro-1H-pyrrolo[2,3-c]pyridine-2-carboxamide], the inhibition constant (Ki) in series [1] was 8.7 nM; in series [6], 79.6 nM. The half-life at 0.5 μM in series [2] was 74 min; in series [3], 91 min; in series [5] it was over 120 min. For the same compound, the EC50 in series [4] stood at 75.1 nM.

For the compound `Cn1cc(-c2cc(C(=O)NCc3ccncc3)ccc2Oc2ccc(F)cc2F)c2cc[nH]c2c1=O` [Example 121, 4-(2,4-difluorophenoxy)-3-(6-methyl-7-oxo-6,7-dihydro-1H-pyrrolo[2,3-c]pyridin-4-yl)-N-(pyridin-4-ylmethyl)benzamide], the inhibition constant (Ki) in series [1] came to 33.4 nM; in series [6], 15.5 nM. Also, the figures for the half-life at 0.5 μM in series [2], in series [3] and in series [5] were 21 min, 24 min and 25 min, respectively. In addition, the EC50 in series [4] stood at 251 nM.

For `Cn1cc(-c2cc(S(C)(=O)=O)ccc2Oc2ccc(F)cc2F)c2cc(C(=O)N3CCOCC3)[nH]c2c1=O` [Example 255, 4-[2-(2,4-difluorophenoxy)-5-(methylsulfonyl)phenyl]-6-methyl-2-(morpholin-4-ylcarbonyl)-1,6-dihydro-7H-pyrrolo[2,3-c]pyridin-7-one], the figures for the Ki in series [1] and in series [6] were 154 nM and 10.5 nM, respectively. Also, the results for the half-life at 0.5 μM in series [2], in series [3] and in series [5] were 70 min, over 120 min and over 120 min, respectively. In series [4], the EC50 was 265 nM.

For the compound `CCS(=O)(=O)N(CCC(F)(F)F)c1ccc(Oc2ccc(F)cc2F)c(-c2cn(C)c(=O)c3[nH]ccc23)c1` [Example 346, N-[4-(2,4-difluorophenoxy)-3-(6-methyl-7-oxo-6,7-dihydro-1H-pyrrolo[2,3-c]pyridin-4-yl)phenyl]-N-(3,3,3-trifluoropropyl)ethanesulfonamide], the results for the inhibition constant (Ki) in series [1] and in series [6] were 16 nM and 96.2 nM, respectively. Besides, the half-life at 0.5 μM in series [2] came out at 4 min; in series [3] it was 2 min; in series [5] it was 5 min. For the same compound, in series [4], the EC50 worked out at 213 nM.

Regarding `CCS(=O)(=O)Nc1ccc(Oc2ccc(F)cc2F)c(-c2cn(C)c(=O)c3[nH]c(C(=O)N4CCN(C)CC4)cc23)c1` [Example 338, N-[4-(2,4-difluorophenoxy)-3-{6-methyl-2-[(4-methylpiperazin-1-yl)carbonyl]-7-oxo-6,7-dihydro-1H-pyrrolo[2,3-c]pyridin-4-yl}phenyl]ethanesulfonamide], the results for the inhibition constant (Ki) in series [1] and in series [6] were 12.7 nM and 0.86 nM, respectively. The half-life at 0.5 μM came out at 39 min in series [2], 20 min in series [3] and 29 min in series [5]. For the same compound, in series [4], the EC50 is 77.9 nM.

For the compound `Cn1cc(-c2cc(NS(C)(=O)=O)ccc2OC2CCOCC2)c2cc[nH]c2c1=O` [Example 29, N-[3-(6-methyl-7-oxo-6,7-dihydro-1H-pyrrolo[2,3-c]pyridin-4-yl)-4-(tetrahydro-2H-pyran-4-yloxy)phenyl]methanesulfonamide], the Ki was 6.7 nM in series [1] and 1.1 nM in series [6]. Besides, the half-life at 0.5 μM is over 120 min in series [2], over 120 min in series [3] and 26 min in series [5]. Also, the EC50 in series [4] stood at 71.8 nM.

With `Cn1cc(-c2cc(S(C)(=O)=O)ccc2Oc2ccccc2Cl)c2cc[nH]c2c1=O` [Example 152, 4-[2-(2-chlorophenoxy)-5-(methylsulfonyl)phenyl]-6-methyl-1,6-dihydro-7H-pyrrolo[2,3-c]pyridin-7-one], the figures for the Ki in series [1] and in series [6] were 4.8 nM and 24.6 nM, respectively. Moreover, the half-life at 0.5 μM in series [2] amounted to 51 min; in series [3], 22 min; in series [5], 10 min. Further, the EC50 in series [4] was found to be 105 nM.

As for `CC(C)COc1ccc(S(C)(=O)=O)cc1-c1cn(C)c(=O)c2[nH]ccc12` [Example 221, 6-methyl-4-[2-(2-methylpropoxy)-5-(methylsulfonyl)phenyl]-1,6-dihydro-7H-pyrrolo[2,3-c]pyridin-7-one], the results for the inhibition constant (Ki) in series [1] and in series [6] were 5 nM and 6.6 nM, respectively. Moreover, the figures for the half-life at 0.5 μM in series [2], in series [3] and in series [5] were 63 min, 43 min and 24 min, respectively. Moreover, in series [4], the EC50 was determined as 6.1 nM.

For the compound `Cn1cc(-c2cc(C(N)=O)ccc2Oc2ccccc2)c2cc[nH]c2c1=O` [Example 19, 3-(6-methyl-7-oxo-6,7-dihydro-1H-pyrrolo[2,3-c]pyridin-4-yl)-4-phenoxybenzamide], the Ki in series [1] is 4.2 nM; in series [6] it was 7.4 nM. The half-life at 0.5 μM in series [2] was found to be 92 min; in series [3], 33 min; in series [5], 13 min. The EC50 in series [4] was found to be 123 nM.

Turning to `Cn1cc(-c2cc(C(=O)NCC(C)(C)O)ccc2Oc2ccc(F)cc2F)c2cc[nH]c2c1=O` [Example 123, 4-(2,4-difluorophenoxy)-N-(2-hydroxy-2-methylpropyl)-3-(6-methyl-7-oxo-6,7-dihydro-1H-pyrrolo[2,3-c]pyridin-4-yl)benzamide], the Ki in series [1] stood at 36.1 nM; in series [6], 27.1 nM. The figures for the half-life at 0.5 μM in series [2], in series [3] and in series [5] were over 120 min, 45 min and over 120 min, respectively. The EC50 in series [4] is 118 nM.

Regarding `CCS(=O)(=O)Nc1ccc(Oc2ccc(F)cc2F)c(-c2cn(C)c(=O)c3[nH]cc(C=O)c23)c1` [Example 349, N-[4-(2,4-difluorophenoxy)-3-(3-formyl-6-methyl-7-oxo-6,7-dihydro-1H-pyrrolo[2,3-c]pyridin-4-yl)phenyl]ethanesulfonamide], the Ki in series [1] was 3.1 nM; in series [6], 6.6 nM. The half-life at 0.5 μM in series [2] is over 120 min; in series [3], 36 min; in series [5], 39 min. Moreover, the EC50 in series [4] was determined as 32.1 nM.
